Data as given in US20230414735A1, “NEOANTIGENS AND METHODS OF THEIR USE” (priority 2016, published 2023).
Where a SMILES comes first, the peptide text is derived from it.

Biological target: T1, HLA class I molecule (Homo sapiens, UniProt P04439)
T1 construct: made in house; host or cells: EBV-transformed homozygous cell lines, fibroblasts, CIR or 721.22 transfectants; purified from detergent lysates on an anti-HLA antibody column
Assay: HLA class I peptide binding affinity assay (inhibition of 125I-radiolabeled probe peptide binding to purified HLA)
Conditions: Allele A03.01; read-out: Observed Affinity (IC50; (nM))
Procedure: Epstein-Barr virus (EBV)-transformed homozygous cell lines, fibroblasts, CIR, or 721.22 transfectants are used as sources of HLA class I molecules. […] HLA molecules are purified from lysates by affinity chromatography. The lysates are passed over a column of Sepharose CL-4B beads coupled to an appropriate antibody. […] A 1/25 volume of 2.0 M Tris, pH 6.8, is added to the eluate to reduce the pH to […]. Eluates are then concentrated by centrifugation in Centriprep 30 concentrators (Amicon, Beverly, MA). Protein content is evaluated by a BCA protein assay (Pierce Chemical Co., Rockford, IL) and confirmed by SDS-PAGE.
Following incubation, MHC-peptide complexes are separated from free peptide by gel filtration on 7.8 mm×15 cm TSK200 columns (TosoHaas 16215, Montgomeryville, PA). Because the large size of the radiolabeled peptide used for the DRB1*1501 (DR2w2(31) assay makes separation of bound from unbound peaks more difficult under these conditions, all DRB1*1501 (DR2w2(31) assays were performed using a 7.8 mm×30 cm TSK2000 column eluted at 0.6 mLs/min. The eluate from the TSK columns is passed through a Beckman 170 radioisotope detector, and radioactivity is plotted and integrated using a Hewlett-Packard 3396A integrator, and the fraction of peptide bound is determined.
Radiolabeled peptides are iodinated using the chloramine-T method. […] All subsequent inhibition and direct binding assays are performed using these HLA concentrations.
Since under these conditions [label]<[HLA] and IC50≥[HLA], the measured IC50 values are reasonable approximations of the true KD values. […] For database purposes, and inter-experiment comparisons, relative binding values are compiled. These values can subsequently be converted back into IC50 nM values by dividing the IC50 nM of the positive controls for inhibition by the relative binding of the peptide of interest.
HLA binding assays were used to evaluate either the affinity of interaction of a given epitope with a selected HLA molecule or the stability.
The measurements are plotted against the predicted affinity in FIG. 1.

IC50: 185 nM
SMILES: CC[C@H](C)[C@H](NC(=O)[C@H](Cc1c[nH]c2ccccc12)NC(=O)[C@H](CS)NC(=O)[C@H](Cc1ccccc1)NC(=O)[C@@H](N)Cc1ccccc1)C(=O)N[C@@H](CC(C)C)C(=O)N[C@@H](CO)C(=O)N[C@@H](CS)C(=O)N[C@@H](CCCCN)C(=O)O (H-FFCWILSCK-OH)
